Source: PMC3366278 (Biomaterials, 2012)
Where a SMILES comes first, the peptide text is derived from it.

Molecular target: T1, recombinant human E-selectin (Homo sapiens, UniProt P16581)
T1 sequence (P16581 22-556 limits assumed): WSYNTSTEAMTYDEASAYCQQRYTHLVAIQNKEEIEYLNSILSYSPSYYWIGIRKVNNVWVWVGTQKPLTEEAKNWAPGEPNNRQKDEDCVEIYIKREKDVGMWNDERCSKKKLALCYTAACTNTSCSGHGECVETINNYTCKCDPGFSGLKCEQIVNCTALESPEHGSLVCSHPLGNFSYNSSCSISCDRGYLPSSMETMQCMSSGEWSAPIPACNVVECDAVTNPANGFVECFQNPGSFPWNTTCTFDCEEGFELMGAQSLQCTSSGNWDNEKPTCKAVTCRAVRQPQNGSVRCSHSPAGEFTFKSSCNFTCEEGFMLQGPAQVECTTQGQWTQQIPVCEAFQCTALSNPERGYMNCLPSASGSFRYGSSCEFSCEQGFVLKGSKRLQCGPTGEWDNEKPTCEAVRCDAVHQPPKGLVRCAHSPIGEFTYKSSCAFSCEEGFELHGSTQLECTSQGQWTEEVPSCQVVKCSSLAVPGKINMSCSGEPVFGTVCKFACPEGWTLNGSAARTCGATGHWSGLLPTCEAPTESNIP
Assay: Surface plasmon resonance
Type: binding
Details: SPR, peptide M versus peptide K

## CC[C@H](C)[C@H](NC(=O)[C@H](CC(=O)O)NC(=O)[C@H](CO)NC(=O)CNC(=O)[C@@H](N)CS)C(=O)N[C@H](C(=O)N[C@@H](Cc1c[nH]c2ccccc12)C(=O)N[C@@H](CC(=O)O)C(=O)N[C@@H](CCC(N)=O)C(=O)N[C@@H](CC(C)C)C(=O)N[C@@H](Cc1c[nH]c2ccccc12)C(=O)N[C@@H](CC(=O)O)C(=O)N[C@@H](CC(C)C)C(=O)N[C@@H](CCSC)C(=O)O)[C@@H](C)O [Peptide M, CGSDITWDQLWDLM] (H-CGSDITWDQLWDLM-OH)
  koff relative to peptide K (times faster): 10 times
